Experimental data published in ChEMBL document CHEMBL1201862, “PubChem BioAssay data set” (2004).
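Cultured in 96-well plates, cells were exposed to test compound for 48 hours across five concentrations. At the GI50, growth is halved.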 Activity calls are given as the source filed them. Cut-off read from the data, not from the text of the source: active = GI50 up to about 1.1 µM and inactive = higher.

Assays:
Assay in all cases: NCI tumour cell line growth inhibition, 48 h
EKVX = system: EKVX
Malme-3M = system: Malme-3M
SK-MEL-5 = system: SK-MEL-5
NCI-H226 = system: NCI-H226
SK-MEL-28 = system: SK-MEL-28
HOP-62 = system: HOP-62
MDA-MB-231 = system: MDA-MB-231
NCI-H522 = system: NCI-H522
IGROV-1 = system: IGROV-1
ACHN = system: ACHN
SR = system: SR
786-0 = system: 786-0
HCC 2998 = system: HCC 2998
DU-145 = system: DU-145
RPMI-8226 = system: RPMI-8226
NCI/ADR-RES = system: NCI/ADR-RES
SF-295 = system: SF-295
SNB-75 = system: SNB-75
K562 = system: K562
CCRF-CEM = system: CCRF-CEM
M14 = system: M14
SK-MEL-2 = system: SK-MEL-2
OVCAR-3 = system: OVCAR-3
NCI-H460 = system: NCI-H460
NCI-H23 = system: NCI-H23
A549 = system: A549
HL-60 = system: HL-60
SW-620 = system: SW-620
OVCAR-4 = system: OVCAR-4
SNB-19 = system: SNB-19
KM12 = system: KM12
U-251 = system: U-251
LOX IMVI = system: LOX IMVI
OVCAR-8 = system: OVCAR-8
COLO 205 = system: COLO 205
UACC-62 = system: UACC-62
HOP-92 = system: HOP-92
UO-31 = system: UO-31
SK-OV-3 = system: SK-OV-3
TK-10 = system: TK-10
HT-29 = system: HT-29
HCT-15 = system: HCT-15
HCT-116 = system: HCT-116
PC-3 = system: PC-3
CAKI-1 = system: CAKI-1
RXF 393 = system: RXF 393
BT-549 = system: BT-549
MOLT-4 = system: MOLT-4
Hs-578T = system: Hs-578T
OVCAR-5 = system: OVCAR-5
SF-268 = system: SF-268
UACC-257 = system: UACC-257
T47D = system: T47D
MDA-MB-435 = system: MDA-MB-435
A498 = system: A498
MDA-N = system: MDA-N
MCF7 = system: MCF7
SN12C = system: SN12C

Measured: GI50

Cc1ccc([S+]([O-])C[C@@]2(C(F)F)NC(=O)NC2=O)cc1 (stereo not given in full)
inactive: EKVX > 100 µM | Malme-3M > 100 µM | SK-MEL-5 > 100 µM | NCI-H226 > 100 µM | SK-MEL-28 > 100 µM | HOP-62 > 100 µM | MDA-MB-231 > 100 µM | NCI-H522 > 100 µM | IGROV-1 > 100 µM | ACHN > 100 µM | SR > 100 µM | 786-0 > 100 µM | HCC 2998 > 100 µM | DU-145 > 100 µM | RPMI-8226 > 100 µM | NCI/ADR-RES > 100 µM | SF-295 > 100 µM | SNB-75 > 100 µM | K562 > 100 µM | CCRF-CEM > 100 µM | M14 > 100 µM | SK-MEL-2 > 100 µM | OVCAR-3 > 100 µM | NCI-H460 > 100 µM | NCI-H23 > 100 µM | A549 > 100 µM | HL-60 > 100 µM | SW-620 > 100 µM | OVCAR-4 > 100 µM | SNB-19 > 100 µM | KM12 > 100 µM | U-251 > 100 µM | LOX IMVI > 100 µM | OVCAR-8 > 100 µM | COLO 205 > 100 µM | UACC-62 > 100 µM | HOP-92 > 100 µM | UO-31 > 100 µM | SK-OV-3 > 100 µM | TK-10 > 100 µM | HT-29 > 100 µM | HCT-116 > 100 µM | PC-3 > 100 µM | CAKI-1 > 100 µM | RXF 393 > 100 µM | BT-549 > 100 µM | MOLT-4 > 100 µM | Hs-578T > 100 µM | OVCAR-5 > 100 µM | SF-268 > 100 µM | UACC-257 > 100 µM | T47D > 100 µM | MDA-MB-435 > 100 µM | A498 > 100 µM
> 100 µM: HCT-15

CC(C)(/C=N\O)NO
> 10 µM: HCT-15
inactive: EKVX > 10 µM | Malme-3M > 10 µM | MDA-N > 10 µM | NCI-H226 > 10 µM | HOP-62 > 10 µM | MDA-MB-231 > 10 µM | NCI-H522 > 10 µM | ACHN > 10 µM | SR > 10 µM | 786-0 > 10 µM | HCC 2998 > 10 µM | DU-145 > 10 µM | RPMI-8226 > 10 µM | NCI/ADR-RES > 10 µM | SF-295 > 10 µM | K562 > 10 µM | CCRF-CEM > 10 µM | M14 > 10 µM | MCF7 > 10 µM | SK-MEL-2 > 10 µM | OVCAR-3 > 10 µM | NCI-H460 > 10 µM | NCI-H23 > 10 µM | A549 > 10 µM | HL-60 > 10 µM | SW-620 > 10 µM | OVCAR-4 > 10 µM | SNB-19 > 10 µM | KM12 > 10 µM | U-251 > 10 µM | LOX IMVI > 10 µM | OVCAR-8 > 10 µM | COLO 205 > 10 µM | HOP-92 > 10 µM | UO-31 > 10 µM | TK-10 > 10 µM | HT-29 > 10 µM | HCT-116 > 10 µM | PC-3 > 10 µM | CAKI-1 > 10 µM | SN12C > 10 µM | RXF 393 > 10 µM | BT-549 > 10 µM | MOLT-4 > 10 µM | OVCAR-5 > 10 µM | SF-268 > 10 µM | UACC-257 > 10 µM | T47D > 10 µM | MDA-MB-435 > 10 µM
